Among the data in patent US8822447B2, “Indazole compounds useful as ketohexokinase inhibitors” (Janssen Pharmaceutica NV, priority 2010, dated 2014) are IC50 values, retold here.

SMILES strings stand for the structures. Where a name gives a salt, the structure may show the parent alone.

This experiment concerns the target KHK (Homo sapiens (Human), UniProt P50053). In words: In Vitro KHK Enzyme Assay (HTMS).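 Further: primary screen measuring inhibition of KHK-catalysed conversion of D-fructose into fructose 1-phosphate.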 Type of experiment: biochemical. Particulars: 200 μM fructose, 100 μM ATP, 2 nM KHK, 60 min at 25° C.; Fructose-1-P detected by high throughput mass spectrometry.

Sequence of KHK (P50053 whole entry): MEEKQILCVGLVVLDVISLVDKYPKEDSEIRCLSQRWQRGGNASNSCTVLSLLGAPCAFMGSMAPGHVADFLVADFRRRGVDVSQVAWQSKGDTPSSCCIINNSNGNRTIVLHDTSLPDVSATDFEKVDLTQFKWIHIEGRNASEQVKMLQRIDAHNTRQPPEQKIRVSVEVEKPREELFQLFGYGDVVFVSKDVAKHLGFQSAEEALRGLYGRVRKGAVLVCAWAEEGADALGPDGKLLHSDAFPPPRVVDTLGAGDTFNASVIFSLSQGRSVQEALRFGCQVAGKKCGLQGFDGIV
Experimental: An enzymatic assay was developed to measure KHK-mediated conversion of D-fructose to Fructose-1-P (F-1-P) using High Throughput Mass Spectroscopy (HTMS) as a means of product detection. This assay served as a primary screen to evaluate the ability to inhibit KHK enzyme activity and it has been adapted to high throughput mass spectrometry (HTMS, BioTrove RapidFire™) format for higher throughput.
The compounds to be tested were dosed in 12-points concentration from 511 μM to 0.5 μM. […] The assay was carried out in 384-well plate format.

In the case of `Cc1nn(-c2ccccc2)c2nc(C3CCN(C(=O)C4CCNCC4)CC3)nc(O)c12` [Compound 87, [4-(4-Hydroxy-3-methyl-1-phenyl-1H-pyrazolo[3,4-d]pyrimidin-6-yl)-piperidin-1-yl]-piperidin-4-yl-methanone hydrochloride], the half-maximal inhibitory concentration (IC50) (commonly the midpoint of a concentration-inhibition curve) is more than 30000 nM.
The result for `Cc1nn(-c2ccccc2)c2nc(C3CCN(C4CCNC4)CC3)nc(O)c12` (stereo not drawn) [Compound 88, 3-Methyl-1-phenyl-6-(1-pyrrolidin-3-yl-piperidin-4-yl)-1H-pyrazolo[3,4-d]pyrimidin-4-ol hydrochloride] reads 1510 nM; that for `Cc1nn(-c2ccccc2)c2nc(C3CCN(C4CCNCC4)CC3)nc(O)c12` [Compound 89, 6-[1,4′]Bipiperidinyl-4-yl-3-methyl-1-phenyl-1H-pyrazolo[3,4-d]pyrimidin-4-ol hydrochloride], 14000 nM.
As to `Cc1nn(-c2ccccc2)c2nc(CC3CCN(C4CNC4)CC3)nc(O)c12` [Compound 90, 6-(1-Azetidin-3-yl-piperidin-4-ylmethyl)-3-methyl-1-phenyl-1H-pyrazolo[3,4-d]pyrimidin-4-ol], the IC50 was more than 30000 nM.
The result for `CCc1nn(-c2ccccc2)c2nc(C3CCNCC3)nc(O)c12` [Compound 91, 3-Ethyl-1-phenyl-6-piperidin-4-yl-1H-pyrazolo[3,4-d]pyrimidin-4-ol hydrochloride] reads 2400 nM; that for `CCc1nn(-c2ccccc2)c2nc(C3CCN(c4ccncc4)CC3)nc(O)c12` [Compound 92, 3-Ethyl-1-phenyl-6-(3,4,5,6-tetrahydro-2H-[1,4′]bipyridinyl-4-yl)-1H-pyrazolo[3,4-d]pyrimidin-4-ol], 1670 nM.
The figure for `CCc1nn(-c2ccccc2)c2nc(C3CCN(c4cccnc4)CC3)nc(O)c12` [Compound 93, 3-Ethyl-1-phenyl-6-(3,4,5,6-tetrahydro-2H-[1,3′]bipyridinyl-4-yl)-1H-pyrazolo[3,4-d]pyrimidin-4-ol] is 7900 nM.
The figure for `CCc1nn(-c2ccccc2)c2nc(C3CCN(C4CCNC4)CC3)nc(O)c12` (stereo not drawn) [Compound 94, 3-Ethyl-1-phenyl-6-(1-pyrrolidin-3-yl-piperidin-4-yl)-1H-pyrazolo[3,4-d]pyrimidin-4-ol hydrochloride] is 5270 nM.
For the compound `CCc1nn(-c2ccccc2)c2nc(C3CCN(C4CCNCC4)CC3)nc(O)c12` [Compound 95, 6-[1,4′]Bipiperidinyl-4-yl-3-ethyl-1-phenyl-1H-pyrazolo[3,4-d]pyrimidin-4-ol hydrochloride], the IC50 worked out at 11500 nM.
`CCc1nn(-c2ccccc2)c2nc(C3CCN(C(=O)C4CCNCC4)CC3)nc(O)c12` [Compound 96, [4-(3-Ethyl-4-hydroxy-1-phenyl-1H-pyrazolo[3,4-d]pyrimidin-6-yl)-piperidin-1-yl]-piperidin-4-yl-methanone hydrochloride] had an IC50 of 30000 nM.
`Cc1nn(-c2ccccc2)c2nc(-c3ccc(N4CCNCC4)cc3)cc(O)c12` [Compound 97, 3-Methyl-1-phenyl-6-(4-piperazin-1-yl-phenyl)-1H-pyrazolo[3,4-b]pyridin-4-ol] gave an IC50 of 2710 nM.
Take `CCc1nn(-c2ccccc2)c2nc(-c3ccc(N4CC(C)NC(C)C4)cc3)cc(OC)c12` (stereo not drawn) [Compound 98, 6-[4-(3,5-Dimethyl-piperazin-1-yl)-phenyl]-3-ethyl-4-methoxy-1-phenyl-1H-pyrazolo[3,4-b]pyridine]: 300 nM corresponded to half-maximal inhibition (IC50).
The figure for `COc1cc(-c2ccc(N3CCNCC3)cc2)nc2c1c(C)nn2-c1ccccc1` [Compound 99, 4-Methoxy-3-methyl-1-phenyl-6-(4-piperazin-1-yl-phenyl)-1H-pyrazolo[3,4-b]pyridine] is 600 nM; for `CCc1nn(-c2ccccc2)c2nc(-c3ccc(NC4CCNCC4)cc3)cc(O)c12` [Compound 100, 3-Ethyl-1-phenyl-6-[4-(piperidin-4-ylamino)-phenyl]-1H-pyrazolo[3,4-b]pyridin-4-ol] it is 1720 nM.
Compound `Cc1nn(-c2ccccc2)c2nc(-c3ccc(NC4CCNCC4)cc3)cc(O)c12` [Compound 101, 3-Methyl-1-phenyl-6-[4-(piperidin-4-ylamino)-phenyl]-1H-pyrazolo[3,4-b]pyridin-4-ol] came in with a half-inhibitory concentration (IC50) of 890 nM.
The result for `CCOc1cc(-c2ccc(N3CCNCC3)cc2)nc2c1c(CC)nn2-c1ccccc1` [Compound 102, 4-Ethoxy-3-ethyl-1-phenyl-6-(4-piperazin-1-yl-phenyl)-1H-pyrazolo[3,4-b]pyridine] reads 1430 nM; that for `CCOc1cc(-c2ccc(N3CCN(C)CC3)cc2)nc2c1c(CC)nn2-c1ccccc1` [Compound 103, 4-Ethoxy-3-ethyl-6-[4-(4-methyl-piperazin-1-yl)-phenyl]-1-phenyl-1H-pyrazolo[3,4-b]pyridine], 660 nM.
For the compound `CCOc1cc(-c2ccc(N3CC(C)NC(C)C3)cc2)nc2c1c(CC)nn2-c1ccccc1` (stereo not drawn) [Compound 104, 6-[4-(3,5-Dimethyl-piperazin-1-yl)-phenyl]-4-ethoxy-3-ethyl-1-phenyl-1H-pyrazolo[3,4-b]pyridine], it took 14700 nM to reach half-maximal inhibition (IC50).
On to `COc1ccc(-n2nc(SC)c3ccc(N4CCN(C5CCNCC5)CC4)cc32)cc1` [Compound 106, 1-(4-Methoxy-phenyl)-3-methylsulfanyl-6-(4-piperidin-4-yl-piperazin-1-yl)-1H-indazole], for which 360 nM corresponded to half-maximal inhibition (IC50).
The figure for `CSc1nn(-c2ccccc2)c2cc(OCC3CCNCC3)ccc12` [Compound 107, 3-Methylsulfanyl-1-phenyl-6-(piperidin-4-ylmethoxy)-1H-indazole] is 440 nM.
`CCN(CC1CCNCC1)c1ccc2c(SC)nn(-c3ccccc3)c2c1` [Compound 108, Ethyl-(3-methylsulfanyl-1-phenyl-1H-indazol-6-yl)-piperidin-4-ylmethyl-amine]: the 50% inhibitory concentration (IC50) was determined as 890 nM.
As to `CSc1nn(-c2ccccc2)c2cc(NC3CCNCC3)ccc12` [Compound 109, (3-Methylsulfanyl-1-phenyl-1H-indazol-6-yl)-piperidin-4-yl-amine], inhibition was half-maximal at 770 nM (IC50).
The figure for `CSc1nn(-c2ccc([N+](=O)[O-])cc2)c2cc(C(=O)NC3CCNCC3)ccc12` [Compound 110, 3-Methylsulfanyl-1-(4-nitro-phenyl)-1H-indazole-6-carboxylic acid piperidin-4-ylamide] is 9830 nM; for `CSc1nn(-c2ccc(N)cc2)c2cc(C(=O)NC3CCNCC3)ccc12` [Compound 111, 1-(4-Amino-phenyl)-3-methylsulfanyl-1H-indazole-6-carboxylic acid piperidin-4-ylamide] it is 2610 nM.
Consider `CSc1nn(-c2ccccc2)c2cc(NCC3CCNCC3)ccc12` [Compound 112, (3-Methylsulfanyl-1-phenyl-1H-indazol-6-yl)-piperidin-4-ylmethyl-amine], for which the IC50 was 420 nM.
The result for `CSc1nn(-c2ccc(N)cc2)c2cc(CN3CCNCC3)ccc12` [Compound 115, 4-(3-Methylsulfanyl-6-piperazin-1-ylmethyl-indazol-1-yl)-phenylamine] reads more than 51000 nM.
Consider `CSc1nn(-c2ccc(N)cc2)c2cc(C3=CCNCC3)ccc12` [Compound 116, 4-[3-Methylsulfanyl-6-(1,2,3,6-tetrahydro-pyridin-4-yl)-indazol-1-yl]-phenylamine], for which the IC50 came to 160 nM.
Turning to `CSc1nn(-c2cccc(C)c2)c2cc(N3CCNCC3)ccc12` [Compound 118, 3-Methylsulfanyl-6-piperazin-1-yl-1-m-tolyl-1H-indazole], the IC50 came to 4120 nM.
With `CSc1nn(-c2cccc(C)c2)c2cc(N3CCN(C4CCNCC4)CC3)ccc12` [Compound 119, 3-Methylsulfanyl-6-(4-piperidin-4-yl-piperazin-1-yl)-1-m-tolyl-1H-indazole], the IC50 came out at 380 nM.
The result for `CSc1nn(-c2ccccc2)c2cc(OC3CCNCC3)ccc12` [Compound 121, 3-Methylsulfanyl-1-phenyl-6-(piperidin-4-yloxy)-1H-indazole] reads 710 nM; that for `COc1ccc(-n2nc(SC)c3ccc(N4CCNCC4)cc32)cc1` [Compound 122, 1-(4-Methoxy-phenyl)-3-methylsulfanyl-6-piperazin-1-yl-1H-indazole], 830 nM; that for `CSc1nn(-c2ccc([N+](=O)[O-])cc2)c2cc(C3=CCNCC3)ccc12` [Compound 124, 3-Methylsulfanyl-1-(4-nitro-phenyl)-6-(1,2,3,6-tetrahydro-pyridin-4-yl)-1H-indazole], 490 nM.
`CSc1nn(-c2cc(F)cc(F)c2)c2cc(N3CCN(C4CCNCC4)CC3)ccc12` [Compound 126, 1-(3,5-Difluoro-phenyl)-3-methylsulfanyl-6-(4-piperidin-4-yl-piperazin-1-yl)-1H-indazole] showed an IC50 of 4220 nM.
The compound `CSc1nn(-c2ccc(Br)cc2)c2cc(OCC3CCNCC3)ccc12` [Compound 128, 1-(4-Bromo-phenyl)-3-methylsulfanyl-6-(piperidin-4-ylmethoxy)-1H-indazole] came in with an IC50 of 920 nM.
The result for `CSc1nn(-c2ccc([N+](=O)[O-])cc2)c2cc(CN3CCNCC3)ccc12` [Compound 130, 3-Methylsulfanyl-1-(4-nitro-phenyl)-6-piperazin-1-ylmethyl-1H-indazole] reads 44900 nM.
The figure for `CSc1nn(-c2ccccc2)c2cc(NC(=O)CN3CCNCC3)ccc12` [Compound 131, N-(3-Methylsulfanyl-1-phenyl-1H-indazol-6-yl)-2-piperazin-1-yl-acetamide] is 680 nM.
The result for `CSc1nn(-c2ccccc2)c2cc(NC(=O)CCN3CCNCC3)ccc12` [Compound 132, N-(3-Methylsulfanyl-1-phenyl-1H-indazol-6-yl)-3-piperazin-1-yl-propionamide] reads 380 nM; that for `CSc1nn(-c2ccc([N+](=O)[O-])cc2)c2cc(C(=O)N3CCNCC3)ccc12` [Compound 133, [3-Methylsulfanyl-1-(4-nitro-phenyl)-1H-indazol-6-yl]-piperazin-1-yl-methanone], more than 51000 nM; that for `CSc1nn(-c2ccc(F)cc2)c2cc(N3CCN(C4CCNCC4)CC3)ccc12` [Compound 135, 1-(4-Fluoro-phenyl)-3-methylsulfanyl-6-(4-piperidin-4-yl-piperazin-1-yl)-1H-indazole], 1650 nM.
